Results reported in article PMC11903766, “A structure-based framework for selective inhibitor design and optimization” (Communications Biology, 2025).

Biological target: T1, PARP1 (Homo sapiens, UniProt P09874)
Assay: ELISA enzyme inhibition assay
Type: biochemical
Conditions: read-out: PARP1 Enzyme / IC50 (nM)^b

T1 sequence (P09874 2-1014): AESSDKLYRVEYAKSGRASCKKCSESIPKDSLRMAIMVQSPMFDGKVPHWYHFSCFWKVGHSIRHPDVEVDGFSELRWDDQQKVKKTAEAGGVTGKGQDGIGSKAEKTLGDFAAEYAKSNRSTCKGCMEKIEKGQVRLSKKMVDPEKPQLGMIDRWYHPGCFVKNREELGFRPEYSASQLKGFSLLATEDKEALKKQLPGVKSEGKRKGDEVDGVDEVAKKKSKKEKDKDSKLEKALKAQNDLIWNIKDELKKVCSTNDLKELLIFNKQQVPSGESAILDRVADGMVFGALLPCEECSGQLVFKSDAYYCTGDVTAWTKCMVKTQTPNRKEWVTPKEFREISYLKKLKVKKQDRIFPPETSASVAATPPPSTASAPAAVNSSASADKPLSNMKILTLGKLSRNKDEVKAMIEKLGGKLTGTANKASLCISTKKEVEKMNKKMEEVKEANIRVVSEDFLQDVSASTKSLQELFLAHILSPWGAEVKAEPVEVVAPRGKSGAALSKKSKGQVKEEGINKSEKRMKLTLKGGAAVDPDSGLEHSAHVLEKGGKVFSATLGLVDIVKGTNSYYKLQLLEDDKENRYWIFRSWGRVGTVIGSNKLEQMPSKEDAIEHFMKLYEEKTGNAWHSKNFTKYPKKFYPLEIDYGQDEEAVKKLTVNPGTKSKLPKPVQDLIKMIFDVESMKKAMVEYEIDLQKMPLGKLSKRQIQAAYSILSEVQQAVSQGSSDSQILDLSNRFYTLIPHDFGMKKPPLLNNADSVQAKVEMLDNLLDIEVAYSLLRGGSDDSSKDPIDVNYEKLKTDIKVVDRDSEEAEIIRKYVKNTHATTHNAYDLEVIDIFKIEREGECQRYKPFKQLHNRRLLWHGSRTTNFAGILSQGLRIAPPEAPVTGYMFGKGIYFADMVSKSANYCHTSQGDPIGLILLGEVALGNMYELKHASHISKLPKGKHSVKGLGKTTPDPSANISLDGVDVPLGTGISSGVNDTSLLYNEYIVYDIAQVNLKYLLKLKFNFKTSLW

| IC50 [nM] | SMILES |
| --- | --- |
| 86.5 | CCn1c(=O)[nH]c2sc(CN3CCN(c4ccc(C(=O)NC)nc4)CC3)c(C)c2c1=O [Y4] |
| 12.7 | CNC(=O)c1ccc(N2CCN(Cc3ccc4c(c3)[nH]c3ncccc34)CC2)cn1 [Y5] |
| 6 | CCNC(=O)Nc1cc(CN2CCN(c3ccc(C(=O)NC)nc3)CC2)c2ccccc2n1 [Y6] |

Biological target: T2, PARP2 (Homo sapiens, UniProt Q9UGN5)
Assay: ELISA enzyme inhibition assay
Type: biochemical
Conditions: read-out: PARP2 Enzyme / IC50 (nM)^b

T2 sequence (Q9UGN5 whole entry): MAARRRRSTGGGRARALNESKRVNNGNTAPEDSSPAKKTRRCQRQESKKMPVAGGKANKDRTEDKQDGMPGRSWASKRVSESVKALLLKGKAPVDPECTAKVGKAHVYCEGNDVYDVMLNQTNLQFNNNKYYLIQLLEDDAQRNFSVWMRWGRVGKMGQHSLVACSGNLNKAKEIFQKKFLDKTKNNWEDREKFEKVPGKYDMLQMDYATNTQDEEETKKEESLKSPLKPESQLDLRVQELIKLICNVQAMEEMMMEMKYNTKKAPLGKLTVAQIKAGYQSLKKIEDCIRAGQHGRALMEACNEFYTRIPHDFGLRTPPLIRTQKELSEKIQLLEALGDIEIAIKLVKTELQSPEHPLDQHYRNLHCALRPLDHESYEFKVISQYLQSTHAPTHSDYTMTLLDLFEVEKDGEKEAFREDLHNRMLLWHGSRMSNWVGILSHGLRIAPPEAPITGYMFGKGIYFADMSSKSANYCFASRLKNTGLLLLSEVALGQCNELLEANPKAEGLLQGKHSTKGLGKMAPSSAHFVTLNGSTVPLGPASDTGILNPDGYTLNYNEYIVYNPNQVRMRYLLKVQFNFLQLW

| IC50 [nM] | SMILES |
| --- | --- |
| 741 | CCn1c(=O)[nH]c2sc(CN3CCN(c4ccc(C(=O)NC)nc4)CC3)c(C)c2c1=O [Y4] |
| 2.4 | CCNC(=O)Nc1cc(CN2CCN(c3ccc(C(=O)NC)nc3)CC2)c2ccccc2n1 [Y6] |

Biological target: T1, PARP1
Assay: biochemical
Parameters: PARP1 ELISA on histone-coated plates with NAD+, anti-PAR antibody, HRP chemiluminescence
Conditions: not given
Protocol: (§1) S53 Biological Assay Methods PARP1 inhibitory activity assay. The histone coated 384-well plates were prepared by adding 25 µL histone solution to each well and incubating overnight at 4°C. Prepared PBST buffer, blocking buffer, and assay buffer. Washed the histone coated 384-well plate 3 times using PBST buffer solution. It was blocked with 50 µL blocking buffer at room temperature for 1 h. The plate was washed 3 times using PBST buffer. 2000x compounds were prepared in the source plate, and 50nl compound were transferred from the source plate to the 96-well intermediate plate with 19.95ul assay buffer, shaken, and centrifuged at 1000rpm for 1 min. 5 µL DMSO/compound was then transferred to each well. The PARP1 and DNA mixture was incubated for 10 min at 25°C, followed by the addition of 10 µL PARP1 and DNA (except min control), incubated with the compound for 10 min at RT, and 10 μL DNA was added to the minimal control of assay plate. Added 10 µL of 2.5x NAD+ to each well and incubated for 60 min at 25°C. The plate was washed 3 times with PBST buffer and then assayed. Added 20 µL of anti-Poly/Mono-ADP Ribose Rabbit mAb. […] Read chemiluminescence on Envision immediately after adding 25 µL of Femto-ECL Substrate A and Femto-ECL Substrate B (1:1) mix. The IC50 values were calculated by analyzing the concentration-response curves. […]

| IC50 [nM] | SMILES |
| --- | --- |
| 3370 | CNC(=O)c1ccc(N2CCN(Cc3ccnc(-c4c[nH]c(=O)c(C)c4)n3)CC2)cn1 [R1] |

Biological target: T2, PARP2
Assay: biochemical
Parameters: PARP2 ELISA on histone-coated plates with biotin-NAD+, streptavidin-HRP chemiluminescence
Conditions: not given
Protocol: (§2) S54 PARP2 inhibitory activity assay. The histone coated 384-well plates were prepared by adding 25 µL histone solution to each well and incubating overnight at 4°C. Prepared PBST buffer, blocking buffer, and assay buffer. Washed the histone coated 384-well plate 3 times using PBST buffer solution. It was blocked with 50 µL blocking buffer at room temperature for 1 h. The plate was washed 3 times using PBST buffer. 2000x compounds were prepared in the source plate, and 50nl compound were transferred from the source plate to the 96-well intermediate plate with 19.95ul assay buffer, shaken, and centrifuged at 1000rpm for 1 min. 5 µL DMSO/compound was then transferred to each well. The PARP2 mixture was incubated for 10 min at 25°C, followed by the addition of 10 µL PARP2 (except min control), incubated with the compound for 10 min at RT, and 10 µL assay buffer was added to the minimal control of assay plate. Added 10 µL of 2.5x Biotin-NAD+ to each well and incubated for 90 min at 25°C. The plate was washed 3 times with PBST buffer and then assayed. Added 25 µL of Stre-HRP. Incubated for 1 h at RT and washed the plate 3 times with PBST buffer. Read chemiluminescence on Envision immediately after adding 25 µL of Femto-ECL Substrate A and Femto-ECL Substrate B (1:1) mix. The IC50 values were calculated by analyzing the concentration-response curves.

| IC50 [nM] | SMILES |
| --- | --- |
| 255 | CNC(=O)c1ccc(N2CCN(Cc3ccnc(-c4c[nH]c(=O)c(C)c4)n3)CC2)cn1 [R1] |

Biological target: T1, PARP1
Assay: biochemical
Parameters: PARP1 ELISA on histone-coated plates, NAD+, anti-PAR antibody with HRP, chemiluminescence
Conditions: not given
Remark: another data set of the same source
Protocol: S53 Biological Assay Methods PARP1 inhibitory activity assay. The histone coated 384-well plates were prepared by adding 25 µL histone solution to each well and incubating overnight at 4°C. Prepared PBST buffer, blocking buffer, and assay buffer. Washed the histone coated 384-well plate 3 times using PBST buffer solution. It was blocked with 50 µL blocking buffer at room temperature for 1 h. The plate was washed 3 times using PBST buffer. 2000x compounds were prepared in the source plate, and 50nl compound were transferred from the source plate to the 96-well intermediate plate with 19.95ul assay buffer, shaken, and centrifuged at 1000rpm for 1 min. 5 µL DMSO/compound was then transferred to each well. The PARP1 and DNA mixture was incubated for 10 min at 25°C, followed by the addition of 10 µL PARP1 and DNA (except min control), incubated with the compound for 10 min at RT, and 10 μL DNA was added to the minimal control of assay plate. Added 10 µL of 2.5x NAD+ to each well and incubated for 60 min at 25°C. The plate was washed 3 times with PBST buffer and then assayed. Added 20 µL of anti-Poly/Mono-ADP Ribose Rabbit mAb. Incubated for 1.5 h at RT and washed the plate 3 times with PBST buffer. Then added, 20 µL of diluted (1:2000 in Blocking buffer) anti-rabbit IgG, HRP-linked Antibody. Incubated for 1 h at RT and washed the plate 3 times using PBST buffer. Read chemiluminescence on Envision immediately after adding 25 µL of Femto-ECL Substrate A and Femto-ECL Substrate B (1:1) mix. The IC50 values were calculated by analyzing the concentration-response curves. Fit the data to obtain inhibition values using equation (1) Equation (1): inh %=( Max-Signal)/ (Max-Min)*100 Fit the data to obtain IC50 values using equation (2) Equation (2): Y=Bottom + (Top-Bottom)/(1+(IC50/X)[…]) Y is %inhibition and X is compound concentration.

| SMILES | inhibition at 0.01 µM [%] | inhibition at 10 µM [%] |
| --- | --- | --- |
| CCn1c(=O)[nH]c2sc(CN3CCN(c4ccc(C(=O)NC)nc4)CC3)c(C)c2c1=O [Y4] | 20.7 | 99 |
| CNC(=O)c1ccc(N2CCN(Cc3ccc4c(c3)[nH]c3ncccc34)CC2)cn1 [Y5] | 46 | 98.8 |

The remaining lines, values ahead:

| inhibition at 0.01 µM [%] | inhibition at 10 µM [%] | SMILES |
| --- | --- | --- |
| -0.1 | 47.4 | CNC(=O)c1ccc(N2CCN(CC#Cc3cccc4cn[nH]c34)CC2)cn1 [Y2] |
| 70.5 | 99.1 | CCNC(=O)Nc1cc(CN2CCN(c3ccc(C(=O)NC)nc3)CC2)c2ccccc2n1 [Y6] |
| 7.3 | 12.7 | O=C(c1ccc(C(F)(F)F)c(=O)[nH]1)N1CCN(c2ccc3cc[nH]c3c2)CC1 [Z5] |

Biological target: T1, PARP1
Assay: not given
Parameters: PARP1 ELISA on histone-coated plates, NAD+, anti-PAR antibody with HRP, chemiluminescence
Conditions: inhibitor
Protocol: as §1

| IC50 [nM] | SMILES |
| --- | --- |
| 9800 | CNC(=O)c1ccc(N2CCN(CC#Cc3cccc4cn[nH]c34)CC2)cn1 [Y2] |
| > 10000 | O=C(c1ccc(C(F)(F)F)c(=O)[nH]1)N1CCN(c2ccc3cc[nH]c3c2)CC1 [Z5] |

Biological target: T2, PARP2
Assay: biochemical
Parameters: PARP2 ELISA on histone-coated plates, biotin-NAD+, streptavidin-HRP, chemiluminescence
Conditions: not given
Remark: another data set of the same source
Protocol: as §2

| SMILES | inhibition at 0.01 µM [%] |
| --- | --- |
| CCn1c(=O)[nH]c2sc(CN3CCN(c4ccc(C(=O)NC)nc4)CC3)c(C)c2c1=O [Y4] | -1.6 |
| CNC(=O)c1ccc(N2CCN(Cc3ccc4c(c3)[nH]c3ncccc34)CC2)cn1 [Y5] | 1.4 |

The next lines start with the values.

| inhibition at 0.01 µM [%] | SMILES |
| --- | --- |
| 2.3 | CNC(=O)c1ccc(N2CCN(CC#Cc3cccc4cn[nH]c34)CC2)cn1 [Y2] |
| 87.6 | CCNC(=O)Nc1cc(CN2CCN(c3ccc(C(=O)NC)nc3)CC2)c2ccccc2n1 [Y6] |
| -0.8 | O=C(c1ccc(C(F)(F)F)c(=O)[nH]1)N1CCN(c2ccc3cc[nH]c3c2)CC1 [Z5] |

Biological target: T2, PARP2
Assay: not given
Parameters: PARP2 ELISA on histone-coated plates, biotin-NAD+, streptavidin-HRP, chemiluminescence
Conditions: inhibitor
Protocol: as §2

| IC50 [nM] | SMILES |
| --- | --- |
| > 10000 | CNC(=O)c1ccc(N2CCN(CC#Cc3cccc4cn[nH]c34)CC2)cn1 [Y2] |
| > 10000 | CNC(=O)c1ccc(N2CCN(Cc3ccc4c(c3)[nH]c3ncccc34)CC2)cn1 [Y5] |
| > 10000 | O=C(c1ccc(C(F)(F)F)c(=O)[nH]1)N1CCN(c2ccc3cc[nH]c3c2)CC1 [Z5] |
